US20060052350A1, “Crystalline forms of 1,24(S)-dihydroxy vitamin D2” (priority 2004, published 2006)

Experiment: Stability of the crystalline forms exposed to 100% relative humidity (resulting form identified by powder XRD)
Type: physicochemical
Details: 100% relative humidity for about 1 week at room temperature
Description: The crystal forms were identified using an Applied Research Laboratory (SCINTAG) powder X-ray diffractometer model X'TRA equipped with a solid state detector. The crystal samples were analyzed using a round aluminum sample holder with zero background and copper radiation of 1.5418 Å.

C=C1/C(=C\C=C2/CCCC3(C)C2CCC3[C@H](C)/C=C/[C@@](C)(O)C(C)C)C[C@@H](O)C[C@@H]1O (stereo partly drawn) [Form B, 1,24(S)-dihydroxy vitamin D2]
Maintenance of crystal structure (no transformation to another crystalline form) on humidity exposure: maintain their crystal structure
